Measurements from PubChem BioAssay (NCI).
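Where inhibition never reached the appropriate level, the endpoint shown equals the highest concentration tested. Otherwise, values were interpolated linearly from a five-concentration, 48-hour dose response in 96-well plates. TGI: total growth inhibition.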

Experiments:
Assay in all cases: inhibition of tumour cell growth, NCI panel, 48 h
HL-60(TB) leukemia = system: HL-60(TB) leukemia
LOX IMVI melanoma = system: LOX IMVI melanoma
MALME-3M melanoma = system: MALME-3M melanoma
SK-MEL-5 melanoma = system: SK-MEL-5 melanoma
MCF7 breast = system: MCF7 breast
A549 NSCLC = system: A549 NSCLC
NCI-H23 lung = system: NCI-H23 lung
UACC-62 melanoma = system: UACC-62 melanoma
TK-10 renal = system: TK-10 renal
A498 renal = system: A498 renal

| Compound | TGI (HL-60(TB) leukemia) | TGI (LOX IMVI melanoma) | TGI (MALME-3M melanoma) | TGI (SK-MEL-5 melanoma) | TGI (MCF7 breast) | TGI (A549 NSCLC) | TGI (NCI-H23 lung) | TGI (UACC-62 melanoma) | TGI (TK-10 renal) | TGI (A498 renal) |
| --- | --- | --- | --- | --- | --- | --- | --- | --- | --- | --- |
| Cc1ccc(S(=O)(=O)NC(=O)Nc2ccc(C(=O)O)cc2)cc1 | > 100 µM | > 100 µM | > 100 µM | > 100 µM | > 100 µM | > 100 µM | > 100 µM | > 100 µM | > 100 µM |  |
| COC(=O)[C@H](C)NC(=O)[C@H](NS(=O)(=O)c1nc2ccccc2s1)c1ccccc1 | > 100 µM | 31.9 µM |  | 40.5 µM | > 100 µM |  | > 100 µM | 28.3 µM | > 100 µM |  |
| O=C(O)CCCc1ccc2c(c1)C(C(=O)O)CC2 (stereo not drawn) | > 100 µM | > 100 µM | > 100 µM | > 100 µM | > 100 µM | > 100 µM | > 100 µM | > 100 µM | > 100 µM |  |
| COc1cc(C2c3cc4c(cc3[C@@H](Nc3ccc(F)cc3)C3COC[C@H]23)OCO4)cc(OC)c1O (stereo partly drawn) | 2.29 µM |  |  | > 25 µM | > 25 µM | 10.6 µM |  |  | > 25 µM |  |
| CC(=O)OC12c3ccccc3C(c3ccccc31)C1C(=O)N(N=C(C)C)C(=O)C12 (stereo not drawn) | > 100 µM | > 100 µM | > 100 µM | > 100 µM | > 100 µM | > 100 µM | > 100 µM | > 100 µM | > 100 µM |  |
| CC1(C)N=C(/C(Cl)=[N+](/[O-])C(=O)c2ccc(Cl)cc2)C(C)(C)N1O | 60.7 µM | 20.4 µM | 35.9 µM | 43.2 µM | 32.7 µM | > 100 µM | 48.6 µM |  | 38.8 µM |  |
| BrC1(c2ccccc2)C[n+]2c(-c3ccccc3)cc(-c3ccccc3)cc2-c2ccccc21 (stereo not drawn) | 0.538 µM | 1.82 µM | 13.2 µM | 0.366 µM | 0.735 µM | 9.77 µM | 34.5 µM |  | 20.6 µM | 9.32 µM |
| CC(C)CNP(=O)(NCC(C)C)Oc1ccc(CC(NC(=O)OCc2ccccc2)C(=O)OCc2ccccc2)cc1 (stereo not drawn) |  | 32.5 µM | 34.9 µM | 45.8 µM | 24.7 µM | > 100 µM | 32.3 µM | 34.1 µM | > 100 µM | 50.8 µM |
| CC(C)C(NCc1c2ccccc2[n+](C)c2ccccc12)C(=O)O (stereo not drawn) | > 21 µM | 17.3 µM | 19.1 µM | 20.8 µM |  | 29.9 µM | 27.2 µM | 18.6 µM | 21.3 µM | 24.6 µM |
| O=c1c2ccc(Cl)cc2oc2c(CSc3ccccc3)cccc12 |  | > 91.9 µM | > 61.1 µM | > 92.1 µM | > 100 µM | > 100 µM | > 87.6 µM | > 83.3 µM | > 100 µM | > 79.1 µM |
| O=c1c2[nH]cnc2n(-c2ccccc2)c(=S)n1-c1ccccc1 | > 100 µM | > 100 µM |  | > 100 µM | > 100 µM | > 100 µM | > 100 µM | > 100 µM | > 100 µM | > 100 µM |
| COc1cc2c(cc1OC)C1=C(C=O)c3ccc(OC)c(OC)c3C(O)N1CC2 (stereo not drawn) | 75.2 µM |  | 53.9 µM | 29.7 µM | > 100 µM | > 100 µM | 57.1 µM | 29.4 µM | 72.8 µM | 72.5 µM |
| COc1cc2c(cc1O)NC(=O)[C@@H]1C[C@@H](O)CN1C2=O |  | > 100 µM | > 100 µM | > 100 µM | > 100 µM | > 100 µM | > 100 µM | > 100 µM | > 100 µM | > 100 µM |
| Cn1c2c(c3c(=O)[nH]ncc31)Cc1ccccc1-2 | 69 µM | 75.1 µM | 44.5 µM | 34.9 µM | 56.5 µM | > 100 µM | > 100 µM |  | 29.3 µM | 27.5 µM |
| O=S(Nc1ccccc1)c1ccc(Cl)cc1 (stereo not drawn) | > 100 µM | > 100 µM | > 100 µM | > 100 µM | > 100 µM | > 100 µM | > 100 µM | 90 µM | > 100 µM |  |
| NC(=O)CSc1nc2ccccc2c(=O)n1N |  | > 100 µM | > 100 µM | > 100 µM | > 100 µM | > 100 µM | > 100 µM | > 100 µM | > 100 µM | > 100 µM |
| CC(=O)CCC1(C(=O)OCC(C)C)CCCC1=O (stereo not drawn) | > 100 µM | > 100 µM | > 100 µM | > 100 µM |  | > 100 µM | > 100 µM | > 100 µM | > 100 µM |  |
| O=C(N/N=C/c1ccccc1)c1c(F)c(F)c(F)c(F)c1F | > 100 µM | > 100 µM | > 100 µM | > 100 µM |  | > 100 µM | > 100 µM | > 100 µM | > 100 µM | > 100 µM |
| CC(C)(NO)/C(=N\O)c1ccccc1 | > 10 µM |  | > 10 µM |  | > 10 µM |  | > 10 µM |  | > 10 µM |  |
| CC1CC(c2ccccc2)=Nc2ccccc2S1 (stereo not drawn) | > 100 µM | > 100 µM |  | > 100 µM |  | > 100 µM | > 100 µM | > 100 µM | > 100 µM | > 100 µM |
| C=CCOC(C)(C)C1=CCC(C)CC1 (stereo not drawn) | > 100 µM |  | > 100 µM | > 100 µM | > 100 µM | > 100 µM | > 100 µM | > 100 µM | > 100 µM | > 100 µM |
| Clc1[nH]nc2ccccc12 | > 100 µM |  | > 100 µM | > 100 µM | > 100 µM | > 100 µM | > 100 µM | > 100 µM | > 100 µM | > 100 µM |
| CCCCCCCCCCCC1=C(O)C(=O)C(CC2=C(O)C(=O)C(CCCCCCCCCCC)=C(O)C2=O)=C(O)C1=O |  | > 100 µM | > 100 µM | > 100 µM | > 100 µM | > 100 µM | > 100 µM | > 100 µM | > 100 µM | 98.2 µM |
| Cc1ccc(S(=O)(=O)N/N=c2/sc3ccccc3n2C)cc1 | > 100 µM | > 100 µM | > 100 µM | > 100 µM |  | > 100 µM | > 100 µM | > 100 µM | > 100 µM | > 100 µM |
